Legend:
Assay in all cases: relative viability (nuclei count vs DMSO), 5 days (fraction); higher = more cells survive
[1] = compound: COc1nc(N)nc2c1ncn2[C@@H]1O[C@H](CO)[C@@H](O)[C@@H]1O [Nelarabine] + NC(=O)Nc1cc(-c2cccc(F)c2)sc1C(=O)N[C@H]1CCCNC1 [AZD7762] (partner 0.2 µM)
Procedure, shortened: (§1)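 Each reported value is a median over duplicate plates. It expresses relative viability: treated-well nuclei count divided by vehicle-well nuclei count. Lung cancer cell lines in 1536-well plates were dosed by pin tool a day after seeding, alone with one drug or with a fixed anchor-drug dose plus five library-drug doses (not always all listed) in √10 steps, and nuclei were counted after 5 days.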

[2] = compound: COc1nc(N)nc2c1ncn2[C@@H]1O[C@H](CO)[C@@H](O)[C@@H]1O [Nelarabine] + Cc1nc(Nc2ncc(C(=O)Nc3c(C)cccc3Cl)s2)cc(N2CCN(CCO)CC2)n1 [Dasatinib] (partner 0.075 µM)
Procedure, shortened: as §1

[3] = compound: COc1nc(N)nc2c1ncn2[C@@H]1O[C@H](CO)[C@@H](O)[C@@H]1O [Nelarabine] + CCNC(=O)c1noc(-c2cc(C(C)C)c(O)cc2O)c1-c1ccc(CN2CCOCC2)cc1 [Luminespib] (partner 0.01 µM)
Procedure, shortened: as §1

[4] = compound: COc1nc(N)nc2c1ncn2[C@@H]1O[C@H](CO)[C@@H](O)[C@@H]1O [Nelarabine] + CC1(C)CCC(c2ccc(Cl)cc2)=C(CN2CCN(c3ccc(C(=O)NS(=O)(=O)c4ccc(N[C@H](CCN5CCOCC5)CSc5ccccc5)c(S(=O)(=O)C(F)(F)F)c4)cc3)CC2)C1 [Navitoclax] (partner 0.5 µM)
Procedure, shortened: as §1

Row | Cell Line | relative viability ([1]; first compound 0.01 µM) | relative viability ([1]; first compound 0.03162 µM) | relative viability ([1]; first compound 0.1 µM) | relative viability ([1]; first compound 0.3162 µM) | relative viability ([1]; first compound 1 µM) | relative viability ([2]; first compound 0.01 µM) | relative viability ([2]; first compound 0.03162 µM) | relative viability ([2]; first compound 0.1 µM) | relative viability ([2]; first compound 0.3162 µM) | relative viability ([2]; first compound 1 µM) | relative viability ([3]; first compound 0.01 µM) | relative viability ([3]; first compound 0.03162 µM) | relative viability ([3]; first compound 0.1 µM) | relative viability ([3]; first compound 0.3162 µM) | relative viability ([3]; first compound 1 µM) | relative viability ([4]; first compound 0.01 µM) | relative viability ([4]; first compound 0.03162 µM) | relative viability ([4]; first compound 0.1 µM) | relative viability ([4]; first compound 0.3162 µM) | relative viability ([4]; first compound 1 µM)
1 | NCI-H650 | 0.75 | 0.991 | 0.915 | 0.932 | 0.943 | 0.501 | 0.48 | 0.417 | 0.51 | 0.468 | 0.857 | 0.726 | 0.759 | 0.708 | 0.718 |  |  |  |  | 
2 | NCI-H1648 |  | 0.597 |  | 0.638 | 0.664 |  |  |  |  |  |  |  |  |  |  |  |  |  |  | 
3 | NCI-H522 | 0.844 | 1.02 | 0.813 | 0.86 | 0.949 | 0.863 | 0.866 | 1.07 | 0.801 | 0.993 |  | 0.993 | 1.25 | 0.96 | 1.29 |  |  |  |  | 
4 | NCI-H1299 |  |  |  |  |  |  |  |  |  |  |  |  |  |  |  | 1.09 | 1.06 | 1.1 | 1.07 | 1.08
5 | SW 1573 |  |  |  |  |  | 0.422 | 0.453 | 0.394 | 0.485 | 0.494 | 0.168 | 0.174 | 0.164 | 0.34 | 0.229 | 1.14 | 1.26 | 1.02 | 0.98 | 1.03
6 | COR-L 105 |  |  |  |  |  | 0.339 | 0.402 | 0.259 | 0.351 | 0.319 | 0.701 | 0.822 | 0.792 | 0.669 | 0.904 | 0.936 | 0.956 | 0.733 | 0.819 | 0.795
7 | HCC-44 | 1.01 | 0.951 | 1.05 | 0.999 | 0.955 |  |  |  |  |  | 1.33 | 1.34 | 0.965 | 1.1 | 1.24 | 1.27 | 1.09 | 0.985 | 1.05 | 0.966
8 | COR-L23 |  |  |  |  |  | 0.611 | 0.442 | 0.502 | 0.543 | 0.402 | 0.973 | 0.796 | 0.576 | 0.906 | 0.869 | 1.4 | 1.14 | 1.09 | 1.04 | 0.977
9 | SW 900 | 0.636 | 0.569 | 0.556 | 0.645 | 0.535 | 0.555 | 0.439 | 0.524 | 0.623 | 0.639 | 0.175 | 0.175 | 0.173 | 0.179 | 0.179 |  |  |  |  | 
10 | NCI-H1563 |  |  |  |  |  | 0.458 | 0.437 | 0.427 | 0.42 | 0.406 | 0.527 | 0.58 | 0.584 | 0.549 | 0.564 |  |  |  |  | 
11 | NCI-H2342 | 0.508 | 0.5 | 0.439 | 0.555 | 0.464 | 0.324 | 0.302 | 0.282 | 0.346 | 0.29 | 0.775 | 0.707 | 0.657 | 0.753 | 0.765 |  |  |  |  | 
12 | LCLC-103H | 0.829 | 0.75 | 0.71 | 0.855 | 0.838 | 0.458 | 0.45 | 0.342 | 0.499 | 0.471 | 1.26 | 0.905 | 0.969 | 1.06 | 0.99 |  |  |  |  | 
13 | SK-LU-1 |  |  |  |  |  | 0.179 | 0.105 | 0.142 | 0.171 | 0.165 | 0.225 | 0.154 | 0.215 | 0.199 | 0.223 | 0.773 | 0.485 | 0.84 | 0.79 | 0.79
14 | IA-LM |  |  |  |  |  |  |  |  |  |  |  |  |  |  |  | 1 | 0.626 | 0.774 | 0.754 | 0.807
15 | NCI-H2009 |  |  |  |  |  | 0.348 | 0.288 | 0.2 | 0.307 | 0.315 | 1.16 | 1.05 | 1.02 | 1.07 | 1.05 | 1.26 | 1.18 | 1.19 | 1.2 | 1.18
16 | NCI-H661 |  |  |  |  |  | 1 | 0.913 | 0.953 | 0.934 | 0.853 | 1.04 | 1.09 | 0.928 | 0.914 | 0.911 |  |  |  |  | 
17 | NCI-H1623 |  |  |  |  |  | 0.525 | 0.563 | 0.51 | 0.559 | 0.517 | 0.467 | 0.574 | 0.588 | 0.483 | 0.621 |  |  |  |  | 
18 | NCI-H1650 |  |  |  |  |  | 0.265 | 0.329 | 0.27 | 0.305 | 0.329 | 0.195 | 0.181 | 0.225 | 0.234 | 0.204 | 1.32 | 1.36 | 1.28 | 1.36 | 1.23
19 | UMC-11 |  |  |  |  |  | 0.698 | 0.463 | 0.575 | 0.541 | 0.608 | 1.24 | 0.961 | 1.03 | 0.973 | 0.893 | 0.291 | 0.277 | 0.307 | 0.306 | 0.313
20 | Calu-6 |  |  |  |  |  |  |  |  |  |  |  |  |  |  |  | 1.17 |  | 0.892 | 0.851 | 0.909
21 | HCC-366 | 0.371 | 0.217 | 0.228 | 0.411 | 0.287 | 0.907 | 0.71 | 0.588 | 0.79 | 0.661 |  |  |  |  |  | 1.55 | 1.03 | 1.22 | 1.2 | 1

Reference: the supplement of paper PMC10307832
